Molecular target: T1, RANTES/MIP-1α chemokine receptor (CCR1) in THP-1 cell membranes (Homo sapiens, UniProt P32246)
T1 construct: Membranes were prepared from THP-1 cells (ATCC #TIB202); host or cells: THP-1 cells (membrane preparation)
T1 sequence (P32246 1-355): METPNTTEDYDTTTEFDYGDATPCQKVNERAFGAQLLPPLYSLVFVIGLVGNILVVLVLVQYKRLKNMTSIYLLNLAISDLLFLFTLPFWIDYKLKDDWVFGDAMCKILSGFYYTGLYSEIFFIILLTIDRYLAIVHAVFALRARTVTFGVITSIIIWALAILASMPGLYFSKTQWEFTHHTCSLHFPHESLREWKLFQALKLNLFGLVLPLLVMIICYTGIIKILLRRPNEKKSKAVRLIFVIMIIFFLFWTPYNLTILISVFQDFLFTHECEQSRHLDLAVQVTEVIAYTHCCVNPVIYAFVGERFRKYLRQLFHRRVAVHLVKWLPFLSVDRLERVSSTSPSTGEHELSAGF
Assay: Receptor binding assay: 125I-RANTES or 125I-MIP-1α binding to THP-1 cell membranes
Conditions: inhibitor concentration required for 50% inhibition of specific binding; 125I-RANTES or 125I-MIP-1α as ligand, THP-1 cell membranes; read-out: IC50
Experimental: Membranes were prepared from THP-1 cells (ATCC #TIB202). Cells were harvested by centrifugation, washed twice with PBS (phosphate-buffered saline), and the cell pellets were frozen at −70 to −85° C. The frozen pellet was thawed in ice-cold lysis buffer consisting of 5 mM HEPES (N-2-hydroxyethylpiperazine-N′-2-ethane-sulfonic acid) pH 7.5, 2 mM EDTA (ethylenediaminetetraacetic acid), 5 μg/ml each aprotinin, leupeptin, and chymostatin (protease inhibitors), and 100 μg/ml PMSF (phenyl methane sulfonyl fluoride—also a protease inhibitor), at a concentration of 1 to 5×10^7 cells/ml. This procedure results in cell lysis. The suspension was mixed well to resuspend all of the frozen cell pellet. Nuclei and cell debris were removed by centrifugation of 400×g for 10 minutes at 4° C. The supernatant was transferred to a fresh tube and the membrane fragments were collected by centrifugation at 25,000×g for 30 minutes at 4° C. The supernatant was aspirated and the pellet was resuspended in freezing buffer consisting of 10 mM HEPES pH 7.5, 300 mM sucrose, 1 μg/ml each aprotinin, leupeptin, and chymostatin, and 10 μg/ml PMSF (approximately 0.1 ml per each 10^8 cells). All clumps were resolved using a minihomogenizer, and the total protein concentration was determined using a protein assay kit (Bio-Rad, Hercules, Calif., cat #500-0002). The membrane solution was then aliquoted and frozen at −70 to −85° C. until needed.
Binding Assays utilized the membranes described above. […] The binding reactions were performed in 60 to 100 μl of a binding buffer consisting of 10 mM HEPES pH 7.2, 1 mM CaCl2, 5 mM MgCl2, and 0.5% BSA (bovine serum albumin), for 60 min at room temperature. The binding reactions were terminated by harvesting the membranes by rapid filtration through glass fiber filters (GF/B or GF/C, Packard) which were presoaked in 0.3% polyethyleneimine. The filters were rinsed with approximately 600 μl of binding buffer containing 0.5 M NaCl, dried, and the amount of bound radioactivity was determined by scintillation counting in a Topcount beta-plate counter.
Specific binding is defined as the total binding minus the non-specific binding; non-specific binding is the amount of cpm still detected in the presence of excess unlabeled Rantes or MIP-1α.

Substance | IC50 [µM]
4-(2-Chlorophenyl)-1-[3-(5,11-dihydro-7-methoxy[1]benzoxepino[2,3-b]pyridin-5-ylidene)propyl]piperidin-4-ol [Example 76] | < 10
4-(3,4-Dichlorophenyl)-1-[3-(5,11-dihydro-7-methoxy[1]benzoxepino[2,3-b]pyridin-5-ylidene)propyl]piperidin-4-ol [Example 79] | < 1
4-(3,4-difluorophenyl)-1-[3-(5,11-dihydro-7-methoxy[1]benzoxepino[2,3-b]pyridin-5-ylidene)propyl]piperidin-4-ol [Example 144] | < 1
4-(3,5-dichlorophenyl)-1-[3-(5,11-dihydro-7-methoxy[1]benzoxepino[2,3-b]pyridin-5-ylidene)propyl]piperidin-4-ol [Example 146] | > 10
4-(3-Chlorophenyl)-1-[3-(5,11-dihydro-7-methoxy[1]benzoxepino[2,3-b]pyridin-5-ylidene)propyl]piperidin-4-ol [Example 75] | < 10
4-(4-Bromophenyl)-1-[3-(5,11-dihydro-7-methoxy[1]benzoxepino[2,3-b]pyridin-5-ylidene)propyl]piperidin-4-ol [Example 60] | < 1
4-(4-Chlorophenyl)-1-[3-(5,11-dihydro [1]benzoxepino[2,3-b]pyridin-5-ylidene)propyl]piperidin-4-ol [Example 53] | < 1
4-(4-Chlorophenyl)-1-[3-(5,11-dihydro-7-(1-butoxy)carbonyl-[1]benzoxepino[2,3-b]pyridin-5-ylidene) propyl]piperidine-4-ol [Example 427] | < 1
4-(4-Chlorophenyl)-1-[3-(5,11-dihydro-7-(1-cyclohexyloxycarbonyloxy)ethyloxycarbonyl[1]benzoxepino[2,3-b]pyridin-5-ylidene)propyl]piperidin-4-ol dihydrochloride [Example 306] | < 1
4-(4-Chlorophenyl)-1-[3-(5,11-dihydro-7-(1-ethoxycarbonyl-1-methylethyl)oxy[1]benzoxepino[2,3-b]pyridin-5-ylidene)propyl]piperidin-4-ol [Example 138] | < 1
4-(4-Chlorophenyl)-1-[3-(5,11-dihydro-7-(1-ethoxycarbonyl-1-methylethyl)oxy[1]benzoxepino[2,3-b]pyridin-5-ylidene)propyl]piperidine [Example 158] | < 1
4-(4-Chlorophenyl)-1-[3-(5,11-dihydro-7-(1-piperidino)methyl[1]benzoxepino[2,3-b]pyridin-5-ylidene)propyl]piperidin-4-ol [Example 277] | < 1
4-(4-Chlorophenyl)-1-[3-(5,11-dihydro-7-(1-propoxy)carbonyl-[1]benzoxepino[2,3-b]pyridin-5-ylidene) propyl]piperidine-4-ol [Example 426] | < 1
4-(4-Chlorophenyl)-1-[3-(5,11-dihydro-7-(1-pyrrolidino)methyl [1]benzoxepino[2,3-b]pyridin-5-ylidene)propyl]piperidin-4-ol [Example 279] | < 1
4-(4-Chlorophenyl)-1-[3-(5,11-dihydro-7-(2,3-dihydroxy)propyl[1]benzoxepino[2,3-b]pyridin-5-ylidene)propyl]piperidin-4-ol [Example 290] | < 1
4-(4-Chlorophenyl)-1-[3-(5,11-dihydro-7-(2-hydroxy)ethyl[1]benzoxepino[2,3-b]pyridin-5-ylidene)propyl]piperidin-4-ol [Example 280] | < 1
4-(4-Chlorophenyl)-1-[3-(5,11-dihydro-7-(2-hydroxyethyl)oxy[1]benzoxepino[2,3-b]pyridin-5-ylidene)propyl]piperidin-4-ol [Example 51] | < 1
4-(4-Chlorophenyl)-1-[3-(5,11-dihydro-7-(2-morpholinoethyl)oxy[1]benzoxepino[2,3-b]pyridin-5-ylidene)propyl]piperidin-4-ol [Example 52] | < 1

— patent US8653096B2, “Chemokine receptor antagonists and methods of use thereof” (Millennium Pharmaceuticals, Inc., priority 2001, dated 2014)
